According to patent US20070059687A1, “Process for evaluating phagocytotic function and use thereof” (priority 2001, published 2007):

Tests used:
[1] = test system: Micrococcus luteus; assay: Lysis evaluated by decrease in turbidity at 600 nm; format: cell-based; settings: lysozyme 10,000 unit/ml
Experimental: (§1) Enterococcus faecalis was inoculated in 50 ml of the aforementioned BHI liquid medium, and cultured at 37° C. for 8 hours or longer. This culture liquid was centrifuged at 4° C. for 10 minutes at 2,000×g to collect the bacteria, followed by subjecting to a heat treatment in an autoclave (120° C., for 10 minutes) after suspending in PBS. Next, the suspension was centrifuged at 4° C. for 10 minutes at 2,000×g, and the supernatant was discarded. Precipitates were suspended in 1 ml of PBS, and thereafter, subjected to freeze-drying. This freeze-dried sample was suspended in 5 mmol/l Tris-hydrochloric acid (pH 6.0), 2 mmol/l magnesium chloride containing 0 to 10% DMSO to give the samples for N-acetylmuramidase. Further, Micrococcus luteus (JCM1464) was inoculated in 5 ml of BHI liquid medium (supra), and cultured at 37° C. for 8 hours or longer. The cultured bacterial liquid was centrifuged at 4° C. for 10 minutes at 2,000×g to collect the bacteria. After discarding the supernatant, and suspending and washing the bacterial pellet with 5 ml of PBS, centrifugation was conducted once again at 4° C. for 10 minutes at 2,000×g to collect the bacteria. […] Enzymatic activity was evaluated on the basis of the decrease in turbidity of the sample at the absorbance of 600 nm using a microplate reader. […] Additionally, no decrease in enzymatic activity was found with DMSO at the concentration of 2% or less. […] The results are show in FIG. 4(a) to (c) and Table 3 below.

[2] = test system: Staphylococcus epidermidis; assay: Lysis evaluated by decrease in turbidity at 600 nm; format: cell-based; settings: lysostafin 50 unit/ml
Text: (§2) Conditions for the enzyme to lyse Staphylococcus aureus (ATCC 12600), Staphylococcus epidermidis (ATCC 14990), Pseudomonas aeruginosa (ATCC 10145), Enterococcus faecalis (ATCC 19433) and Escherichia coli (ATCC 11775) were studied. For Staphylococcus aureus and Staphylococcus epidermidis, lysostafin was used as the lytic enzyme (Bur. J. Biochem., 38, 293-300, 1973). […] Further, for Pseudomonas aeruginosa and Escherichia coli, PBS containing 70 mmol/l sodium hydroxide was used. Each type of these bacteria was inoculated in 5 ml of BHI (Brain Heart Infusion) liquid medium (manufactured by DIFCO), and cultured at 37° C. for 8 hours or longer. Thus cultured bacterial liquid was collected by centrifugation at 4° C. for 10 minutes at 2,000×g. The collected bacteria were suspended in PBS to give a sample.
(§3) Lysis was evaluated by decrease in turbidity of the bacterial liquid at the absorbance of 600 nm using a microplate reader. Consequently, Staphylococcus aureus and Staphylococcus epidermidis were lysed by lysostafin. In respect of Pseudomonas aeruginosa and Escherichia coli, no enzymatic treatment was required because lysis was conducted with PBS containing 70 mmol/l sodium hydroxide. […] Moreover, when the bacterium incorporated upon phagocytotic action is for example, Pseudomonas aeruginosa, Escherichia coli or the like, bacterial cell wall is lysed during the alkaline treatment to result in the state in which the gene is exposed. Therefore, it is not necessary to conduct this enzymatic treatment. Each enzyme for the pretreatment which is used in lysis of the foreign microorganism according to the present invention is effective not only for the aforementioned bacterial strain, but also for other bacterial strain that includes other genus staphylococcus, genus streptococcus, genus bacillus, genus micrococcus and the like. […] The results are illustrated in FIG. 3, specifically, in regard to: (a) Staphylococcus aureus and Staphylococcus epidermidis, (b) Pseudomonas aeruginosa and Escherichia coli, and (c) Enterococcus faecalis.
as §1

[3] = test system: Enterococcus faecalis; assay: Lysis evaluated by decrease in turbidity at 600 nm; format: cell-based
Text: as §2, §3, §1

[4] = test system: digested samples; assay: Influence of surfactant added to hybridization solution on signal detection; format: cell-based; settings: for detection sensitivity: surfactant added to the probe dilution solution, SDS 0.25%
Experimental: A solution containing 15 ng of a digoxigenin labelled DNA probe prepared with a probe dilution solution (including 0.25% SDS, 600 μl of salmon sperm DNA, 50 μl of 100× Denhardt's solution, 500 μl of a hybridization stock solution, 2250 μl of formamide, 1000 μl 50% dextran sulfate) is coated on the smeared site, and the slide was left to stand still in a humid box at 37° C. to 42° C. for 2 hours. A probe solution without including SDS was determined as a control. The digoxigenin labelled DNA probe was produced by a nick translation method. Thereafter, a hybridization washing solution (prepared by mixing a hybridization stock solution (13.15 g of sodium chloride, 6.615 g of trisodium citrate dihydrate, adjusted to give the total volume of 75 ml with sterile purified water) in a ratio of the hybridization stock solution:sterile purified water:formamide=5:4:50) was provided in three staining bottles, and sequentially the sample was immersed at 42° C. for 10 minutes, respectively.
The digested samples produced according to the process described in Example 17(1) and [2] were used as specimens. […] In addition, the detection sensitivity could be improved by lauryl sarcosine, BRIJ 35 or Tween 20.

[5] = test system: specimen A-SA (Staphylococcus aureus); assay: In situ hybridization of clinical blood specimens of patients suspected of sepsis; format: cell-based; settings: 0.25% SDS added to probe dilution solution, FIG. 1
Experimental: As clinical specimens, 12 specimens of blood collected from patients suspected as suffering from sepsis (specimens A to L) were used. Ten ml of heparinized venous blood was collected from each patient, and after admixing the blood with a reagent for separating blood (225 mg of sodium chloride, 1.5 g of dextran (MW: 200,000-300,000)), adjusted to give the total volume of 25 ml with sterile purified water) at a ratio of 4:1, a leukocyte fraction (upper layer) was obtained by leaving to stand still at 37° C. for 30 minutes. […] The slide glass was immersed in PBS for 10 minutes, and thereafter, in a solution of an enzyme pretreatment reagent (prepared by mixing 1.25 g of saponin, 1.25 ml of t-octylphenoxypolyethoxyethanol (specific gravity: 1.068 to 1.075 (20/4° C.), pH (5 w/v %) 5.5-7.5) and 25 ml of the PBS stock solution, and adjusting to give the total volume of 50 ml with sterile purified water) diluted to 10 fold in sterile purified water, and allowing infiltration on a shaker for 10 minutes. […] Then, it was immersed in PBS containing 0.2 mol/l hydrochloric acid (prepared by adding hydrochloric acid to the PBS stock solution, 20 fold dilution in sterile purified water, and adjusting to give the final concentration of hydrochloric acid of 0.2 mol/l) and allowed infiltration on a shaker for 10 minutes as it was. […] A probe solution without including SDS was determined as a control. […]

[6] = test system: EF digested sample; assay: Enzymatic treatment of digested sample, bacterial bodies in leukocytes by acridine orange staining; format: cell-based, Enterococcus faecalis; settings: N-acetylmuramidase fixed at 100 unit/ml
Experimental: Using the slide glass having each digested sample smeared thereon, the enzymatic pretreatment was performed according to the process described in Example 3. Next, the slide glass after completing the enzymatic pretreatment was placed in a humid box, and the reaction was allowed by dropping 1 ml of each enzyme solution prepared to give each titer on the smeared site of the specimen. Thereafter, the slide glass was immersed in PBS containing 0.2 mol/l hydrochloric acid, and in 70% ethanol respectively, for 10 minutes, and air dried. After immersing this slide glass in PBS containing 70 mmol/l sodium hydroxide for 3 minutes, and in 70% ethanol for 10 minutes, it was air dried and stained with 1% acridine orange staining solution. Then, evaluation was made with a fluorescence microscope (×1,000). For Staphylococcus aureus and Staphylococcus epidermidis, examination of the optimal titer was conducted with lysostafin. […] The determination was made as adequate when no bacterial body was identified in the leukocytes by the enzymatic treatment.
Using a slide glass including each digested sample smeared thereon, examination was conducted according to the process described in example 17 (2). Time period of the enzymatic treatment in this test was 30 minutes, and the temperature for examination was 4° C., 25° C., 37° C., 42° C., and 60° C.
Using the slide glass including each digested sample smeared thereon, examination was conducted according to the process described in example 17 (2). […] Determination was conducted according to the process described in example 17 (2).

## C[S+](C)[O-] [DMSO, dimethylsulfoxide]
[1]
  DMSO concentration at which decrease in activity was found: ≥ 5%
  DMSO concentration at which no decrease in enzymatic activity was found: ≤ 2%
[2]
  DMSO concentration at which decrease in activity was found: ≥ 5%
  DMSO concentration at which no decrease in enzymatic activity was found: ≤ 2%
[3]; DMSO 0 to 10%, N-acetylmuramidase 300 unit/ml
  influence on N-acetylmuramidase activity: hardly influenced

## CCCCCCCCCCCCN(C)CC(=O)O [Lauryl sarcosine]
[4]
  detection sensitivity: improved

## CCCCCCCCCCCCOS(=O)(=O)[O-].[Na+] [SDS, sodium dodecyl sulfate]
[4]; SDS at various concentrations
  preferable concentration: ≤ 1%
[4]
  detection sensitivity: dramatically enhanced
[5]
  detection sensitivity of the signal: markedly elevated

## lysozyme: lytic enzyme (Seikagaku Corporation)
[1]; added DMSO 0 % (control)
  Decrease in turbidity of bacteria: 0.689 ± 0.028 O.D./3 minutes
[1]; added DMSO 0.1 %
  Decrease in turbidity of bacteria: 0.678 ± 0.026 O.D./3 minutes
[1]; added DMSO 1 %
  Decrease in turbidity of bacteria: 0.660 ± 0.026 O.D./3 minutes
[1]; added DMSO 2 %
  Decrease in turbidity of bacteria: 0.653 ± 0.024 O.D./3 minutes
[1]; added DMSO 5 %
  Decrease in turbidity of bacteria: 0.566 ± 0.017 O.D./3 minutes
[1]; added DMSO 10 %
  Decrease in turbidity of bacteria: 0.464 ± 0.016 O.D./3 minutes
[3]; lysozyme in combination with N-acetylmuramidase versus N-acetylmuramidase alone, FIG. 3(c)
  lytic activity: more excellent lytic activity
[6]; lysozyme titer 10 U/mL
  enzymatic treatment determination: inadequate
[6]; lysozyme titer 100 U/mL
  enzymatic treatment determination: inadequate
[6]; lysozyme titer 1,000 U/mL
  enzymatic treatment determination: inadequate
[6]; lysozyme titer 10,000 U/mL
  enzymatic treatment determination: adequate
[6]; lysozyme titer 100,000 U/mL
  enzymatic treatment determination: adequate
